Measurements reported in patent publication US8519149B2, “Tricyclic compounds as mPGES-1 inhibitors” (Glenmark Pharmaceuticals S.A., priority 2010, dated 2013).

Biological target: T1, Recombinant human mPGES-1 (Homo sapiens, UniProt O14684)
T1 sequence (O14684 1-152): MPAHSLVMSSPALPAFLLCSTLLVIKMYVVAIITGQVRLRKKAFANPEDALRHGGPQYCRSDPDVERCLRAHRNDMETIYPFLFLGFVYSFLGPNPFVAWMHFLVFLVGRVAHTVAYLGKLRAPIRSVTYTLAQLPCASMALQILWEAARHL
Assay: In-vitro mPGES-1 enzyme inhibition assay (PGE2 formation from PGH2, HTRF detection)
Type: biochemical
Details: for inhibition at 1 µM: 1 μM test compound, read-out: Percentage inhibition at 1 μM; for inhibition at 1 µM / inhibition at 10 µM: recombinant human mPGES-1 microsomal fraction; for inhibition at 10 µM: 10 μM test compound, read-out: Percentage inhibition at 10 μM; for IC50: class symbols, selected examples
In short: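 IC50 values were derived by nonlinear regression of percent inhibition relative to enzyme reactions run without inhibitor. PGE2 formed from PGH2 with GSH was quantified by antibody-based HTRF after stannous chloride quench. Enzyme source was human mPGES-1 microsomes at 40-60 μg/mL protein; DMSO 0.5% (v/v).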

inhibition at 1 µM [%]	inhibition at 10 µM [%]	IC50 [nM]	SMILES
100	96.2	< 50	CC1(C)Cc2c(c(C(=O)NC3CCCCC3)cc3nc(Nc4c(Cl)cccc4Cl)[nH]c23)O1 [Example-7, N-Cyclohexyl-2-[(2,6-dichlorophenyl)amino]-7,7-dimethyl-7,8-dihydro-1H-furo[3,2-e]benzimidazole-5-carboxamide]
96.8	94.3	–	CC1(C)Cc2c(c(C(=O)NCC(F)(F)F)cc3nc(Nc4c(Cl)cccc4Cl)[nH]c23)O1 [Example-62, 2-[(2,6-Dichlorophenyl)amino]-7,7-dimethyl-N-(2,2,2-trifluoroethyl)-7,8-dihydro-1H-furo[3,2-e]benzimidazole-5-carboxamide]
94.2	97.5	–	Cc1cc2c(o1)c(C(=O)NC1CCCCC1)cc1nc(Nc3c(Cl)cccc3Cl)[nH]c12 [Example-13, N-Cyclohexyl-2-[(2,6-dichlorophenyl)amino]-7-methyl-1H-furo[3,2-e]benzimidazole-5-carboxamide]
96.9	98.3	< 50	Cn1c(Nc2c(F)cccc2Cl)nc2cc(C(=O)Nc3ccc(C4CC4)cc3)c3c(c21)CC(C)(C)O3 [Example-167, 2-((2-Chloro-6-fluorophenyl)amino)-N-(4-cyclopropylphenyl)-1,7,7-trimethyl-7,8-dihydro-1H-benzofuro[4,5-d]imidazole-5-carboxamide]
97.4	91.9	50 to 100	CC1(C)Cc2c(c(C(=O)Nc3ccccc3C(F)(F)F)cc3nc(Nc4ccccc4Cl)[nH]c23)O1 [Example-79, 2-[(2-Chlorophenyl)amino]-7,7-dimethyl-N-[2-(trifluoromethyl)phenyl]-7,8-dihydro-1H-furo[3,2-e]benzimidazole-5-carboxamide]
89.3	99.1	–	Cc1cc2c(o1)c(C(=O)NCc1ccc(F)cc1)cc1nc(Nc3c(Cl)cccc3Cl)[nH]c12 [Example-35, 2-[(2,6-Dichlorophenyl)amino]-N-(4-fluorobenzyl)-7-methyl-1H-furo[3,2-e]benzimidazole-5-carboxamide]
96.9	95.9	< 50	CC(C)(C)c1ccc(NC(=O)c2cc3nc(Nc4c(Cl)cccc4Cl)[nH]c3c3nc(C4CC4)oc23)cc1 [Example-184, N-(4-tert-Butylphenyl)-2-cyclopropyl-7-[(2,6-dichlorophenyl)amino]-8H-imidazo[4,5-e][1,3]benzoxazole-4-carboxamide]
98.1	100	< 50	CC1(C)Cc2c(c(C(=O)Nc3cccc(C(C)(F)F)c3)cc3nc(Nc4c(F)cccc4Cl)[nH]c23)O1 [Example-119, 2-[(2-Chloro-6-fluorophenyl)amino]-N-[3-(1,1-difluoroethyl)phenyl]-7,7-dimethyl-7,8-dihydro-1H-furo[3,2-e]benzimidazole-5-carboxamide]
92.5	97.7	< 50	CC1(C)Cc2c(c(C(=O)Nc3cccc(C(F)(F)F)c3F)cc3nc(Nc4c(F)cccc4Cl)[nH]c23)O1 [Example-168, 2-((2-Chloro-6-fluorophenyl)amino)-N-(2-fluoro-3-(trifluoromethyl)phenyl)-7,7-dimethyl-7,8-dihydro-1H-benzofuro[4,5-d]imidazole-5-carboxamide]
96.4	99.8	< 50	CC1(C)Cc2c(c(C(=O)Nc3cc(C(F)(F)F)ccc3F)cc3nc(Nc4c(F)cccc4Cl)[nH]c23)O1 [Example-111, 2-[(2-Chloro-6-fluorophenyl)amino]-N-[2-fluoro-5-(trifluoromethyl)phenyl]-7,7-dimethyl-7,8-dihydro-1H-furo[3,2-e]benzimidazole-5-carboxamide]
95.1	100	< 50	Cc1cccc(Cl)c1Nc1nc2cc(C(=O)Nc3ccc(F)c(F)c3F)c3c(c2[nH]1)CC(C)(C)O3 [Example-202, 2-((2-Chloro-6-methylphenyl)amino)-7,7-dimethyl-N-(2,3,4-trifluorophenyl)-7,8-dihydro-1H-benzofuro[4,5-d]imidazole-5-carboxamide]
97.6	98.5	–	Cc1cc2c(o1)c(C(=O)Nc1cccc(C(F)(F)F)c1)cc1nc(Nc3c(Cl)cccc3Cl)[nH]c12 [Example-68, 2-[(2,6-Dichlorophenyl)amino]-7-methyl-N-[3-(trifluoromethyl)phenyl]-1H-furo[3,2-e]benzimidazole-5-carboxamide]
98	96.1	< 50	CC1CC2CC(C1NC(=O)c1cc3nc(Nc4c(Cl)cncc4Cl)[nH]c3c3c1OC(C)(C)C3)C2(C)C (centres unmarked) [Example-17, 2-[(3,5-Dichloropyridin-4-yl)amino]-7,7-dimethyl-N-(3,6,6-trimethylbicyclo[3.1.1]hept-2-yl)-7,8-dihydro-1H-furo[3,2-e]benzimidazole-5-carboxamide]
87.9	99.8	> 100	Cn1c(Nc2c(F)cccc2Cl)nc2cc(C(=O)Nc3ccc(C(F)(F)F)c[n+]3[O-])c3c(c21)CC(C)(C)O3 [Example-155, 2-(2-((2-Chloro-6-fluorophenyl)amino)-1,7,7-trimethyl-7,8-dihydro-1H-benzofuro[4,5-d]imidazole-5-carboxamido)-5-(trifluoromethyl)pyridine 1-oxide]
98.6	98.5	< 50	Cc1nc2c(o1)c(C(=O)Nc1cc(C(F)(F)F)ccc1F)cc1nc(Nc3c(F)cccc3Cl)[nH]c12 [Example-186, 7-((2-Chloro-6-fluorophenyl)amino)-N-(2-fluoro-5-(trifluoromethyl)phenyl)-2-methyl-8H-imidazol[4′,5′:5,6]-benzo[1,2-d]oxazole-4-carboxamide]
97.8	98.5	–	Cn1c(Nc2c(Cl)cncc2Cl)nc2cc(C(=O)Nc3ccc(C(F)(F)F)cn3)c3c(c21)CC(C)(C)O3 [Example-219, 2-((3,5-Dichloropyridin-4-yl)amino)-1,7,7-trimethyl-N-(5-(trifluoromethyl)pyridin-2-yl)-7,8-dihydro-1H-benzofuro[4,5-d]imidazole-5-carboxamide]
59.5	60.4	–	CC1(C)Cc2c(c(C(=O)Nc3cc(C(F)(F)F)ccc3F)cc3nc(NCc4ccccc4Cl)[nH]c23)O1 [Example-145, 2-((2-Chlorobenzyl)amino)-N-(2-fluoro-5-(trifluoromethyl)phenyl)-7,7-dimethyl-7,8-dihydro-1H-benzofuro[4,5-d]imidazole-5-carboxamide]
98.8	99	< 50	CC1(C)Cc2c(c(C(=O)Nc3cc(C(F)(F)F)ccc3F)cc3nc(Nc4c(Cl)cncc4Cl)[nH]c23)O1 [Example-195, 2-((3,5-Dichloropyridin-4-yl)amino)-N-(2-fluoro-5-(trifluoromethyl)phenyl)-7,7-dimethyl-7,8-dihydro-1H-benzofuro[4,5-d]imidazole-5-carboxamide]
81.5	99.8	–	Cn1c(Nc2c(Cl)cncc2Cl)nc2cc(C(=O)NCC3CC3)c3c(c21)CC(C)(C)O3 [Example-220, N-(Cyclopropylmethyl)-2-((3,5-dichloropyridin-4-yl)amino)-1,7,7-trimethyl-7,8-dihydro-1H-benzofuro[4,5-d]imidazole-5-carboxamide]
73.5	94.9	–	Cc1cc2c(o1)c(C(=O)NC1CCCCC1)cc1nc(Nc3ccccc3Cl)[nH]c12 [Example-16, 2-[(2-Chlorophenyl)amino]-N-cyclohexyl-7-methyl-1H-furo[3,2-e]benzimidazole-5-carboxamide]
93.7	94.4	< 50	CC1(C)Cc2c(c(C(=O)NCc3ccccc3Br)cc3nc(Nc4c(Cl)cccc4Cl)[nH]c23)O1 [Example-84, N-(2-Bromobenzyl)-2-[(2,6-dichlorophenyl)amino]-7,7-dimethyl-7,8-dihydro-1H-furo[3,2-e]benzimidazole-5-carboxamide]
89.2	99.3	–	Cc1cc2c(o1)c(C(=O)NCCC(C)C)cc1nc(Nc3c(Cl)cncc3Cl)[nH]c12 [Example-50, 2-[(3,5-Dichloropyridin-4-yl)amino]-7-methyl-N-(3-methylbutyl)-1H-furo[3,2-e]benzimidazole-5-carboxamide]
43.9	60.2	–	CC1(C)Cc2c(c(C(=O)Nc3ccc(C(F)(F)F)cc3)cc3nc(Nc4ccc(Cl)cc4Cl)[nH]c23)O1 [Example-91, 2-[(2,4-Dichlorophenyl)amino]-7,7-dimethyl-N-[4-(trifluoromethyl)phenyl]-7,8-dihydro-1H-furo[3,2-e]benzimidazole-5-carboxamide]
100	94.8	< 50	CC1(C)Cc2c(c(C(=O)Nc3cc(C4CC4)ccc3F)cc3nc(Nc4c(Cl)cncc4Cl)[nH]c23)O1 [Example-203, N-(5-Cyclopropyl-2-fluorophenyl)-2-((3,5-dichloropyridin-4-yl)amino)-7,7-dimethyl-7,8-dihydro-1H-benzofuro[4,5-d]imidazole-5-carboxamide]
90.5	99	< 50	Cc1cccc(Cl)c1Nc1nc2cc(C(=O)Nc3cccc(C(C)(F)F)c3)c3c(c2[nH]1)CC(C)(C)O3 [Example-120, 2-[(2-Chloro-6-methylphenyl)amino]-N-[3-(1,1-difluoroethyl)phenyl]-7,7-dimethyl-7,8-dihydro-1H-furo[3,2-e]benzimidazole-5-carboxamide]
